Experiment [1] deals with RPMI-8226 multiple myeloma cells. The experiment can be described thus: Proliferation of multiple myeloma cells (CellTiter-Glo). As to conditions: RPMI8226, 24 hours, 100 μM to 0 μM. It counts as cell-based, human. As for the experimental part: FIG. 5. Graph showing inhibition of proliferation of multiple myeloma cells by IRE-1α inhibitor 11-28 (Example 11). RPMI-8226 multiple myeloma cells were seeded at 20,000 cells per well in RPMI culture medium containing 1% FBS and the required antibiotics. The plate was incubated overnight at 37° C., 95% air, 5% CO2. The following day, compound 11-28 or medium alone was added to wells, resulting in a final volume of 100 μl per well. The compound concentration ranged from 100 μM to 0 μM, with compounds diluted by a factor of 4. After addition of compound, the plate was incubated at 37° C., 95% air, 5% CO2 for 24 hours. Cell proliferation was measured using the CellTiter-Glo assay (Promega), following the manufacturer's instructions.
Proliferation assays using myeloma cell lines (U266, RPMI8226 and MM.1s) are used to determine ED50. Compounds are used as single agents and in combination with other chemotherapeutic drugs.

In experiment [2] the test system is human myeloma RPMI8226 tumor xenografts. The experiment can be described thus: RPMI8226 xenograft efficacy model. The class given is in vivo, mouse. As to conditions: SCID mice, 0.75 mg/kg IV twice weekly.
Description: Mice are monitored for tumor growth, regression and general health. Tumors are collected and characterized by immunohistochemistry and/or FACS analysis. Tumor growth is measured by calipers, ultrasound, or by abdominal lavage. Biomarkers in the blood or tumor can evaluated (primarily XBP-1 splicing).
Experiment [3] deals with phosphorylated IRE-1α and XBP1-splicing in RPMI8226 cells. The experiment in a line: Western blot and RT-PCR of bortezomib-treated RPMI8226 cells. The class given is cell-based, human. Conditions: 24 hour treatment.
A further experiment has as its system primary murine B cells. The experiment can be described thus: IgM secretion after LPS stimulation of primary B cells. It counts as cell-based, mouse. Conditions: added at beginning of stimulation and again at 24 hours; all doses down to 100 nM. The procedure:
FIG. 9. Inhibition of IgM secretion after LPS stimulation of primary murine B cells with selected IRE-1α inhibitors. […] However, compounds had little effect when at added after 40 hours of stimulation; only slight inhibition at the highest dose. Methods were performed as previously described by Iwakoshi et al., Nature 4, 321-29, 2003 for B cell stimulation, plasma cell differentiation and IgM secretion. Primary B cells were Isolated from BALB/c splenocytes using mouse CD43 Microbeads (Miltenyi cat#130-049-801) with 1×10^6 cells per treatment. Purified B cells were stimulated in B Cell Media at a final density of 1×10^6/ml/well in 24-well plates with 20 μg/ml LPS (Sigma cat# L4391). IRE-1α inhibitor compound 17-1 was added at various concentrations (50 μM, 10 μM, 2 μM, 0.4 μM and 0.08 μM) at specified time points (t=0, t=24 hr, t=40 hr, etc.) Cells were incubated for 48 hr at 37° C. At end of the incubation, cells were spun in a plate at 1500 rpm/3 min. Supernatants were collected for quantitation for IgM secretion using a mouse IgM ELISA Kit (Bethyl Labs cat# E90-101). B Cell medium included RPMI+10% FBS supplemented with NEAA, HEPES, NaPyr, PSQ, and β-mercaptoethanol.

With `COc1cc(-c2cccs2)cc(C=O)c1O` [11-28], in experiment [1], the “inhibition of cell proliferation” value is on record as “inhibits the proliferation”.

For `CC(C)C[C@H](NC(=O)[C@H](Cc1ccccc1)NC(=O)c1cnccn1)B(O)O` [bortezomib, [(1R)-3-methyl-1-[[(2S)-1-oxo-3-phenyl-2-[(pyrazinylcarbonyl)amino]propyl]amino]butyl] boronic acid], in experiment [2], the tumor growth entry is “suppression of tumor growth”. Moreover, in experiment [3], the XBP1-splicing entry is on record as “increases” and the “levels of phosphorylated IRE-1α” value is recorded as “increases”.

For the molecule `CN(C)C(=O)c1ccc(-c2ccc3c(C=O)c(O)ccc3c2)cc1` [compound 17-1, 4-(5-formyl-6-hydroxynaphthalen-2-yl)-N,N-dimethylbenzamide], the IgM secretion result with primary murine B cells was “blocked IgM secretion”.

The values are drawn from patent US9981901B2, “IRE-1α inhibitors” (FOSUN ORINOVE PHARMATECH, INC., priority 2007, dated 2018).
